Test results from patent US20130096332A1, “METHOD FOR INCREASING THE CONTENT OF DOCOSAHEXAENOIC ACID IN FAT-CONTAINING MATERIALS OR IN FATS AND OILS” (NIPPON SUISAN KAISHA, LTD., priority 2007, published 2013).

Columns and labels:
Format in all cases: cell-based
[1] = system: strain mh313, microorganism classified into Labyrinthulae; test: DHA percentage of fatty acid composition (gas chromatography) after culture with desaturase inhibitor, strain mh313; details: GY medium, 28° C., 4 days, inhibitor added to medium (curcumin 1μg/ml), control 26.03
Experimental: (§1) Thirty three strains of microorganisms which were isolated from mangrove woods or sea water around Ishigaki City, Okinawa Prefecture and classified into Labyrinthulae, were cultured in a GY medium (prepared according to the method as described in “NIPPON SUISAN GAKKAISHI” vol. 68, no. 5, 674-678 (2002); GY medium containing 3% glucose and 1% yeast extract was prepared with 50% artificial sea water and adjusted to pH 6.0; this was used as a liquid medium or a plate medium with 1.5% agar) at 28° C. for 4 days, to which was added 1μg/ml of curcumin (Nacalai Tesque, Inc.) as an inhibitor for a Δ6-fatty acid desaturase. After termination of the culture, the microorganism was collected by centrifugal separation (1500×g, 10 min), and the cells were destroyed by ultra-sonication and extracted by chloroform/methanol (2:1; by v/v) to yield the total lipid. The resulting total lipid was subjected to methanolysis with 10% hydrogen chloride/methanol solution, and the fatty acid composition was analyzed by gas chromatography (Shimadzu Corp.; Model GC-2014). In a control, the same operation as mentioned above was made with no addition of curcumin. […]

[2] = system: strain mh375, microorganism classified into Labyrinthulae; test: Determination of DHA amount with C19:0 internal standard, strain mh375; details: from ratio of peak area to C19:0 internal standard, control 0.39
Experimental: (§2) Thirty three strains of microorganisms which were isolated from mangrove woods or sea water around Ishigaki City, Okinawa Prefecture and classified into Labyrinthulae, were cultured in a GY medium (prepared according to the method as described in “NIPPON SUISAN GAKKAISHI” vol. 68, no. 5, 674-678 (2002); GY medium containing 3% glucose and 1% yeast extract was prepared with 50% artificial sea water and adjusted to pH 6.0; this was used as a liquid medium or a plate medium with 1.5% agar) at 28° C. for 4 days, to which was added 1μg/ml of curcumin (Nacalai Tesque, Inc.) as an inhibitor for a Δ6-fatty acid desaturase. […] The resulting total lipid was subjected to methanolysis with 10% hydrogen chloride/methanol solution, and the fatty acid composition was analyzed by gas chromatography (Shimadzu Corp.; Model GC-2014). […]
(§3) To the total lipid (about 40 mg) which was extracted from the cells cultured in Examples 1 and 2 was added 0.5mg of nonadecanoic acid (C19:0) as an internal standard substance; then, the fatty acid composition after methanolysis with 10% hydrogen chloride/methanol solution was analyzed by gas chromatography (Shimadzu Corp.; Model GC-2014). From the ratio of the peak area of each fatty acid including DHA to that of C19:0, the amount of each fatty acid was determined.

[3] = system: strain mh314, microorganism classified into Labyrinthulae; test: DHA percentage of fatty acid composition (gas chromatography) after culture with desaturase inhibitor, strain mh314; details: GY medium, 28° C., 4 days, inhibitor added to medium (curcumin 1μg/ml), control 13.27
Experimental: as §1

[4] = system: strain mh375, microorganism classified into Labyrinthulae; test: DHA percentage of fatty acid composition (gas chromatography) after culture with desaturase inhibitor, strain mh375; details: GY medium, 28° C., 4 days, inhibitor added to medium (curcumin 1μg/ml), control 26.02
Experimental: as §1

[5] = system: strain mh295, microorganism classified into Labyrinthulae; test: DHA percentage of fatty acid composition (gas chromatography) after culture with desaturase inhibitor, strain mh295; details: GY medium, 28° C., 4 days, inhibitor added to medium (curcumin 1μg/ml), control 19.19
Experimental: as §1

[6] = system: microorganism classified into Labyrinthulae; test: Content of docosahexaenoic acid in fats and oils produced versus control (summary statements); details: culture with inhibitor versus no inhibitor
Experimental: as §2, §3

[7] = system: strain mh313, microorganism classified into Labyrinthulae; test: Determination of DHA amount with C19:0 internal standard, strain mh313; details: from ratio of peak area to C19:0 internal standard, control 0.56
Experimental: as §2, §3

[8] = system: strain mh295, microorganism classified into Labyrinthulae; test: Determination of DHA amount with C19:0 internal standard, strain mh295; details: from ratio of peak area to C19:0 internal standard, control 0.45
Experimental: as §2, §3

[9] = system: strain mh314, microorganism classified into Labyrinthulae; test: Determination of DHA amount with C19:0 internal standard, strain mh314; details: from ratio of peak area to C19:0 internal standard, control 0.21
Experimental: as §2, §3

SMILES | percentage of the peak area of docosahexaenoic acid [1] [%] | amount of DHA [2] [g/L] | percentage of the peak area of docosahexaenoic acid [3] [%] | percentage of the peak area of docosahexaenoic acid [4] [%] | percentage of the peak area of docosahexaenoic acid [5] [%] | content of docosahexaenoic acid in the fats and oils produced, in comparison with that of the control [6] | amount of DHA [7] [g/L] | amount of DHA [8] [g/L] | amount of DHA [9] [g/L]
COc1cc(/C=C/C(=O)CC(=O)/C=C/c2ccc(O)c(OC)c2)ccc1O [Example 1, curcumin] | 31.05 | 1 | 27.23 | 33.77 | 22.32 | significantly increased | 0.71 | 0.67 | 0.66
c1cc2c(cc1[C@H]1OC[C@H]3[C@@H]1CO[C@@H]3c1ccc3c(c1)OCO3)OCO2 [Example 2, sesamin] | 42.32 | 0.64 | 22.31 | 29.96 | 21.47 | significantly increased | 1.45 | 0.98 | 0.82
